{"source": "patent EP0074411B1", "about": "“ASCORBIC ACID DERIVATIVES” (SANTEN PHARMACEUTICAL CO., LTD., priority 1981, dated 1982)", "test_system": "ddY-SPF strain male mouse", "test": "Acute toxicity test", "format": "in vivo", "details": "ddY-SPF strain male mouse (weight: 25 to 30 g); administered orally as 0.5% tragacanth suspension", "description": "Acute toxicity test • Acute toxicity of 3,6-0,0' - dipivaloyl - L - ascorbic acid of this invention is shown below. • Animal: ddY-SPF strain male mouse (weight: 25 to 30 g) • Method of administration: The compound is administered orally as 0.5% tragacanth suspension. • Acute toxicity: LDso 5000 mg/kg.", "data": [{"smiles": "CC(C)(C)C(=O)OC[C@H](O)[C@H]1OC(=O)C(O)=C1OC(=O)C(C)(C)C", "note": "[3,6-0,0'-Dipivaloyl-L-ascorbic acid]", "values": [{"measurement": "Acute toxicity: LDso", "result": 5000, "unit": "mg/kg"}]}]}
